In data set [1] the target is T1, Na^+ /K^+ /2Cl^- cotransport (Rattus norvegicus, UniProt E9PTX9).
T1 construct: erythrocyte membrane in normotensive rats; from tissue; host or cells: rat erythrocytes
T1 sequence (E9PTX9 1-1203): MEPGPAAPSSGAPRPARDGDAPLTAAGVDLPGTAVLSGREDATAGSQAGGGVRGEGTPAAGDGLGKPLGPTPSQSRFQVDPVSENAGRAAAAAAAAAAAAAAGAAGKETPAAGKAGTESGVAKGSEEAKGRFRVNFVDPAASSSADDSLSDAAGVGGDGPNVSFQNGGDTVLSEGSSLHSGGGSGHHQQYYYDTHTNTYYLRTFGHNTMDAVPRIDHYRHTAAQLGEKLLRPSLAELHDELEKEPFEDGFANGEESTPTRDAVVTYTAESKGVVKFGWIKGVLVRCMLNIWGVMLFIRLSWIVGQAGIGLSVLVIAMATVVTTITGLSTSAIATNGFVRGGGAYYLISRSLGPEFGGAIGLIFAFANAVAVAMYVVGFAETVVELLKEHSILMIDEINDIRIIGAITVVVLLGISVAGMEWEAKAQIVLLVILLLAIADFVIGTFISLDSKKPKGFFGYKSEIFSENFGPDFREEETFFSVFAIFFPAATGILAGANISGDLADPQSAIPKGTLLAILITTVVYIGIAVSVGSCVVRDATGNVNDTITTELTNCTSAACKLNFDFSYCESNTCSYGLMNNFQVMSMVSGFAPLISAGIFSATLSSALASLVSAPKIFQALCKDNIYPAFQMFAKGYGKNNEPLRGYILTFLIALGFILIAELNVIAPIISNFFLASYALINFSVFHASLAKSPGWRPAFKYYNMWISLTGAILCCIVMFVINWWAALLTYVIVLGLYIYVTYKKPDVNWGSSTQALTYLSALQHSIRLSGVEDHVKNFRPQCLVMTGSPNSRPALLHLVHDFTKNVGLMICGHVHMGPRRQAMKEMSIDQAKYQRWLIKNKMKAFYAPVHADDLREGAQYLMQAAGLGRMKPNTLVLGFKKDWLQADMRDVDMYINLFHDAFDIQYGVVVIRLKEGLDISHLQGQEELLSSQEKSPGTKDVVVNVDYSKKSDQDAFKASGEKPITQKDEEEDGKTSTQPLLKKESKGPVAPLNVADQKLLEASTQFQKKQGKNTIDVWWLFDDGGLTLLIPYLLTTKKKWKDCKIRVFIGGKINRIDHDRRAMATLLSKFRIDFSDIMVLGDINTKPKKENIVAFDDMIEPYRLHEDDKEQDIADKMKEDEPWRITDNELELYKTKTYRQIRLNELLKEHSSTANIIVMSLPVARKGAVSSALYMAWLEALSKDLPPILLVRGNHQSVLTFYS
Put plainly: Inhibition of Na+/K+/2Cl- cotransport, erythrocyte membrane in normotensive rats. In kind it is in vivo. The source says: (§1) The 50% inhibitory concentration for Na^+ /K^+ /2Cl^- cotransport in vivo is decreased, in the case of the compound of Example 3, by about 60% relative to Torasemide (luminal membrane of the ascending branch of the loop of Henle in the nephron of perfused rabbits (Arzneim. Forsch. (1988) 38 (1a), 151-152)), and by 85% relative to Torasemide in the case of the compound of Example 10 (erythrocyte membrane in normotensive rats).
This decrease of the 50% inhibitory concentration of the Torasemide for Na^+ /K^+ /[…] co-transport (erythrocyte membrane in normotensive rats) reachs even 90% in the case of the compound of Example 18.

The test system of data set [2] is Cl^- passage in the kidneys. Briefly: Inhibition of Cl- passage in the kidneys in vivo. The source says:
The 50% inhibitory concentration for Cl^- passage in the kidneys in vivo is decreased, in the case of the compound of Example 8 by about 50% relative to Torasemide and in the case of the compound of Example 18 by 75%.

A short description of data set [3]: Determination of partition coefficients between n-octanol and water. The note with it: pH=7.4, logarithm to base 10. In kind it is physicochemical. Here is the method:
The coefficients of partition between n-octanol and water were determined at pH=7.4 by conventional techniques and are expressed as logarithms to base 10 (Log P).

Data set [4] is described as follows: Determination of pKa (proton acidity constant of SO2-NH-CO-). The class given is physicochemical. The text has this: The pKa values represent the proton acidity constants of SO2 --NH--CO--.
The target in data set [5] is T2, Na^+ /K^+ /2Cl^- cotransport (Oryctolagus cuniculus, UniProt P55015).
T2 construct: luminal membrane of the ascending branch of the loop of Henle in the nephron of perfused rabbits; from tissue; host or cells: rabbit nephron, ascending branch of the loop of Henle
T2 sequence (P55015 1-1099): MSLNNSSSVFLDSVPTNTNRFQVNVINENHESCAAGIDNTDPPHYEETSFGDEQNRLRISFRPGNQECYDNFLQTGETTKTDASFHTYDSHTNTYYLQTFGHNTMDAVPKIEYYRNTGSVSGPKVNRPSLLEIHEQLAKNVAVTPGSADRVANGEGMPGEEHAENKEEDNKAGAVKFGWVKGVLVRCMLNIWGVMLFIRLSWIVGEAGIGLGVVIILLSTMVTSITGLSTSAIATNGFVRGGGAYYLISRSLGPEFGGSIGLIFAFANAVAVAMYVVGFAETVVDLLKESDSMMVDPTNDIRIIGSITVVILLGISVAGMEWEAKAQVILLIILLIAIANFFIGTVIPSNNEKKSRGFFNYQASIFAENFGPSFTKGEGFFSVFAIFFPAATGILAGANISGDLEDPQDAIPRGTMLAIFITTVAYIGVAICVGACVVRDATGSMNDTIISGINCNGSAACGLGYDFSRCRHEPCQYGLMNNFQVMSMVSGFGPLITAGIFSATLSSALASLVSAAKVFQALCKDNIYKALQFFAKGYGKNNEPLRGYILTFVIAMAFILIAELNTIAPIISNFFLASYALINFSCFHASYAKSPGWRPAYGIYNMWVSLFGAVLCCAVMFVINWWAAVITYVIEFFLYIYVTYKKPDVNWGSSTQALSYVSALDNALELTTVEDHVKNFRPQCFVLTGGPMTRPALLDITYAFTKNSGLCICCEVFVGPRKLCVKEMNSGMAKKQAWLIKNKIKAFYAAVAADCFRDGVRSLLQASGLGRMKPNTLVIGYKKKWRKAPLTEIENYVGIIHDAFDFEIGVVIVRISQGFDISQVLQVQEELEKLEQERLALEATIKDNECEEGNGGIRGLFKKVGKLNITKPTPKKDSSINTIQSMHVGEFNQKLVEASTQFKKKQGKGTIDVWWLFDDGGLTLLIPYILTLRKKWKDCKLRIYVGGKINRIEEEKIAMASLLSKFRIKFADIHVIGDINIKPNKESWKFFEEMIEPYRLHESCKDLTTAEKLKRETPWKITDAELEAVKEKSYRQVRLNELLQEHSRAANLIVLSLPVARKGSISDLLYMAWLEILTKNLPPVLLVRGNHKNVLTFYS
Put plainly: Inhibition of Na+/K+/2Cl- cotransport, luminal membrane of the ascending branch of the loop of Henle in the nephron of perfused rabbits. The note with it: in vivo.
Text: as §1

Molecules are shown by their SMILES.

On to `O=C(NC1CCCCCC1)NS(=O)(=O)c1cnccc1NC1CCCCCC1` [Example 18, N-((4-(cycloheptylamino)pyrid-3-yl)sulfonyl)-N'-cycloheptylurea], for which the “decrease of the 50% inhibitory concentration for Na+/K+/2Cl- cotransport relative to Torasemide” value in data set [1] is reported as 90%. In addition, in data set [2], the “decrease of the 50% inhibitory concentration for Cl- passage in the kidneys relative to Torasemide” value came to 75%.

The term logD denotes the decadic logarithm of the distribution of all forms, ionised or not, between an organic phase and buffer at a given pH. As usually defined, the pKa is the negative logarithm of the acid dissociation constant. Low values mean a stronger acid or weaker base, high ones a weaker acid or stronger base. Compound `O=C(NC1CCCCCCC1)NS(=O)(=O)c1cnccc1NC1CCCCC1` [Example 7, N-((4-(cyclohexylamino)pyrid-3-yl)sulfonyl)-N'-cyclooctylurea] returned a logD in data set [3] of 2.07. The pKa in data set [4] is 9.13.

For `O=C(NC1CCCCC1)NS(=O)(=O)c1cnccc1NC1CCCCC1` [Example 1, N-((4(-cyclohexylamino)pyrid-3-yl)sulfonyl)-N'-cyclohexylurea], the logD in data set [3] is 1.33. Further, the pKa in data set [4] is 9.02.

On to `O=C(NC1CCCCC1)NS(=O)(=O)c1cnccc1NC1CCCCCC1` [Example 2, N-((4-(cycloheptylamino)pyrid-3-yl)sulfonyl)-N'-cyclohexylurea], for which the logD in data set [3] was 1.67. For the same compound, the pKa in data set [4] came out at 9.39.

The compound `Cc1cccc(Nc2ccncc2S(=O)(=O)NC(=O)NC(C)C)c1` [Torasemide, reference compound] came in with a log distribution coefficient (logD) in data set [3] of 0.449. The pKa in data set [4] was determined as 6.82.

Compound `O=C(NC1CCCCC1)NS(=O)(=O)c1cnccc1NC1CCCCCCC1` [Example 10, N-((4-(cyclooctylamino)pyrid-3-yl)sulfonyl)-N'-cyclohexylurea] registered a logD in data set [3] of 2.06. This compound also came in with a pKa in data set [4] of 8.95. For the same compound, the “decrease of the 50% inhibitory concentration for Na+/K+/2Cl- cotransport relative to Torasemide” value in data set [1] is listed as 85%.

For the compound `O=C(NC1CCCCCCC1)NS(=O)(=O)c1cnccc1NC1CCCCCCC1` [Example 3, N-((4-(cyclooctylamino)pyrid-3-yl)sulfonyl-N'-cyclooctylurea nitrate], the logD in data set [3] was determined as 2.7. This compound registered a pKa in data set [4] of 7.74. Further, the “decrease of the 50% inhibitory concentration for Na+/K+/2Cl- cotransport relative to Torasemide” value in data set [5] is given as “about 60%”.

`O=C(NC1CCCCCC1)NS(=O)(=O)c1cnccc1NC1CCCCCCC1` [Example 8, N-((4-(cyclooctylamino)pyrid-3-yl)sulfonyl)-N'-cycloheptylurea] had a logD in data set [3] of 2.45. The compound further yielded a pKa in data set [4] of 9.15. Also, in data set [2], the “decrease of the 50% inhibitory concentration for Cl- passage in the kidneys relative to Torasemide” value is recorded as “about 50%”.

The values above are taken from patent US5166162A, “Pyridylsulfonylurea and pyridylsulfonylthiourea compounds” (Adir et Compagnie, priority 1990, dated 1992).
